Patent publication US20240368139A1, “NOVEL MODULATORS OF EHMT1 AND EHMT2 AND THERAPEUTIC USE THEREOF” (Tango Therapeutics, Inc., priority 2021, published 2024)

Experiments:
human EHMT2 913-1193 = molecular target: T1, human EHMT2 913-1193 (Homo sapiens, UniProt Q96KQ7); test: EHMT2 enzyme assay on histone peptide substrate (3H-SAM SPA); details: EHMT2 IC50, recombinant human EHMT2 913-1193, histone peptide substrate
T1 sequence (Q96KQ7 913-1193): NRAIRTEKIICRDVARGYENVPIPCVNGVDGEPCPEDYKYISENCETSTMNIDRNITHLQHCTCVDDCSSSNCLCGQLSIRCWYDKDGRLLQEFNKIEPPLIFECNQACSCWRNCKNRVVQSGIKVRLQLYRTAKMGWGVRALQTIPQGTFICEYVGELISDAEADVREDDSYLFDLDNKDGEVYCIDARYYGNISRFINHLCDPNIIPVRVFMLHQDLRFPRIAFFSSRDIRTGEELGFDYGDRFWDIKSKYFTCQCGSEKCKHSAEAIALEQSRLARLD

H3K9me2 in HCT116 cells = test: HCT116 H3K9me2 in-cell western assay; type: cell-based; details: Homo sapiens, HCT-116, 72 h, HCT116 cells, 72 hours incubation; read-out: H3K9me2 ICW IC50
In short: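 H3K9me2 signal (800 nm) was normalized to DRAQ5 DNA stain (700 nm) in an in-cell western. Cells were fixed with paraformaldehyde and probed overnight at 4° C with primary antibody.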

human EHMT1 982-1266 = molecular target: T2, human EHMT1 982-1266 (Homo sapiens, UniProt Q9H9B1); test: EHMT1 enzyme assay on histone peptide substrate (3H-SAM SPA); details: EHMT1 IC50, recombinant human EHMT1 982-1266, histone peptide substrate
T2 sequence (Q9H9B1 982-1266): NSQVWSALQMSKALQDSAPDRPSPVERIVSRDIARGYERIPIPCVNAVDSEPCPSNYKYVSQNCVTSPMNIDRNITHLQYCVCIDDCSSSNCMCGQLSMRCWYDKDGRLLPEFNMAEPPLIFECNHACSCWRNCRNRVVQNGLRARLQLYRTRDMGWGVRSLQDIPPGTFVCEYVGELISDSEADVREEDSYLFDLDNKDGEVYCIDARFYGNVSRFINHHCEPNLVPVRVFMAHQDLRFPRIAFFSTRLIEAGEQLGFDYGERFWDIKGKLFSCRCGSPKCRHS

hERG potassium channels = hERG potassium channels (Homo sapiens, UniProt Q12809); test: In vitro hERG assay (SyncroPatch whole-cell recording); details: hERG IC50, SyncroPatch, room temperature
hERG potassium channels, sequence (Q12809 whole entry): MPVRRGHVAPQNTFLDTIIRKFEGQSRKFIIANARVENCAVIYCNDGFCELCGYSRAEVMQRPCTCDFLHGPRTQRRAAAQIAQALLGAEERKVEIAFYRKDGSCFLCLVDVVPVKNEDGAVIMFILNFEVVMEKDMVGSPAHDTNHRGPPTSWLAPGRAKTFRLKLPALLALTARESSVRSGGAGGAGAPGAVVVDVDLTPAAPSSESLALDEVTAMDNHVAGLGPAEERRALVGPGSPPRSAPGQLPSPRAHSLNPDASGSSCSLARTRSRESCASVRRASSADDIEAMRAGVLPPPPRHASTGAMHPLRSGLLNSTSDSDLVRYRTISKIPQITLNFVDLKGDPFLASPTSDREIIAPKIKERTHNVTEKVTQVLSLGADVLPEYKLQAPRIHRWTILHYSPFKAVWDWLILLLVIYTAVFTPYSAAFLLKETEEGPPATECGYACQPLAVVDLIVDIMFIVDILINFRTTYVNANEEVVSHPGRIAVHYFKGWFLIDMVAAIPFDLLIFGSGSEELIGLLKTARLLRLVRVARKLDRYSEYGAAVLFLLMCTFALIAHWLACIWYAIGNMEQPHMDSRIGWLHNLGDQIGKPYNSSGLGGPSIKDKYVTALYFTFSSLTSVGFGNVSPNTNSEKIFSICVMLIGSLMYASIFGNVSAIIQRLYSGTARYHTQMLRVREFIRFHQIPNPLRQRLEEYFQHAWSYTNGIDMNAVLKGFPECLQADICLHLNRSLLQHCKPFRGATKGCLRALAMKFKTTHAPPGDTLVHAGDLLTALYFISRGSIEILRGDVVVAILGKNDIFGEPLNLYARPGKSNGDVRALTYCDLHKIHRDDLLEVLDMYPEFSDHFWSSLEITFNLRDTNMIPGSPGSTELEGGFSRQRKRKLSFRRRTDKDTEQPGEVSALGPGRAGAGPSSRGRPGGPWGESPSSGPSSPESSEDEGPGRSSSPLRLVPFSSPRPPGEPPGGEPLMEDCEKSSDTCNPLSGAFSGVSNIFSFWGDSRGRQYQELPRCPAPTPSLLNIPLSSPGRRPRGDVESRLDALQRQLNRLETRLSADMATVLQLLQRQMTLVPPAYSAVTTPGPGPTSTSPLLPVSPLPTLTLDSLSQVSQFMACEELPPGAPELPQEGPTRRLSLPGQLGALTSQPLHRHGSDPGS

Row | IC50 (human EHMT2 913-1193) [µM] | IC50 (H3K9me2 in HCT116 cells) [µM] | IC50 (human EHMT1 982-1266) [µM] | SMILES | IC50 (hERG potassium channels) [µM]
1 | 0.1 to 0.5 | 0.1 to 0.5 | 0.1 to 0.5 | CNc1cc(C)nc(Nc2cc3c(c(C4=CCNCCC4)c2)CCO3)n1 [Compound 332] | > 10
2 | 0.5 to 2 | 0.1 to 0.5 | 0.1 to 0.5 | CNc1cc(C)nc(Nc2cc3c(c(C4C[C@H]5CNC[C@H]5C4)c2)OCCO3)n1 (stereo partly drawn) [Compound 334] | > 10
3 | 0.1 to 0.5 | 0.1 to 0.5 | 0.1 to 0.5 | CNc1ccnc(Nc2cc3c(c(C4=CCN(C)CCC4)c2)OCO3)n1 [Compound 335] | 5 to 10
4 | < 0.1 | < 0.1 | < 0.1 | CNc1ccnc(Nc2cc3c(c(C4=CCNCCC4)c2)OCO3)n1 [Compound 336] | 5 to 10
5 | 0.1 to 0.5 | 0.1 to 0.5 | < 0.1 | CNc1cc(C)nc(Nc2cc3c(c(C4CCCNCC4)c2)OCCC3)n1 (stereo not drawn) [Compound 341] | > 10
6 | 0.1 to 0.5 | 0.1 to 0.5 | 0.1 to 0.5 | CNc1cc(C)nc(Nc2cc3c(c(C4CCCNCC4)c2)OCCO3)n1 (stereo not drawn) [Compound 348] | > 10
